From patent publication US20250011318A1 (ARCUS BIOSCIENCES, INC., priority 2023, published 2025)

Key:
Jurkat cells = assay: IL-2 secretion assay in CD3/CD28-activated Jurkat cells (AlphaLISA); format: cell-based, human; conditions: Homo sapiens, CD3/CD28 T Cell Activator, 24 h, IL-2 AlphaLISA
Summary of the method: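 Jurkat cells (50,000/well) preincubated 1 h at 37° C with compound (16-point 1:2 series, final 10 μM to 300 pM) in Opti-MEM, then stimulated with CD3/CD28 activator for 24 h. Supernatant IL-2 read by AlphaLISA; EC50 from 4-parameter logistic fit.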

Cbl-b = biological target: T1, Cbl-b (Homo sapiens, UniProt Q13191); assay: Cbl-b probe displacement HTRF binding assay; conditions: 0.4 nM biotinylated Cbl-b, 150 nM BODIPY probe
T1 construct: biotin (biotinylated)
Summary of the method: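 Biotinylated Cbl-b (0.4 nM) preincubated 60 min at RT with compound (20-point 1:2 series, 10 μM top), then 150 nM BODIPY probe for 15 min, then streptavidin-terbium detection. Buffer: 20 mM Hepes, 150 mM NaCl, 0.01% Triton X-100, 0.5 mM TCEP, 0.01% BSA. Loss of HTRF signal gave IC50 via four-parameter fit.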

T1 sequence (Q13191 whole entry, species assumed): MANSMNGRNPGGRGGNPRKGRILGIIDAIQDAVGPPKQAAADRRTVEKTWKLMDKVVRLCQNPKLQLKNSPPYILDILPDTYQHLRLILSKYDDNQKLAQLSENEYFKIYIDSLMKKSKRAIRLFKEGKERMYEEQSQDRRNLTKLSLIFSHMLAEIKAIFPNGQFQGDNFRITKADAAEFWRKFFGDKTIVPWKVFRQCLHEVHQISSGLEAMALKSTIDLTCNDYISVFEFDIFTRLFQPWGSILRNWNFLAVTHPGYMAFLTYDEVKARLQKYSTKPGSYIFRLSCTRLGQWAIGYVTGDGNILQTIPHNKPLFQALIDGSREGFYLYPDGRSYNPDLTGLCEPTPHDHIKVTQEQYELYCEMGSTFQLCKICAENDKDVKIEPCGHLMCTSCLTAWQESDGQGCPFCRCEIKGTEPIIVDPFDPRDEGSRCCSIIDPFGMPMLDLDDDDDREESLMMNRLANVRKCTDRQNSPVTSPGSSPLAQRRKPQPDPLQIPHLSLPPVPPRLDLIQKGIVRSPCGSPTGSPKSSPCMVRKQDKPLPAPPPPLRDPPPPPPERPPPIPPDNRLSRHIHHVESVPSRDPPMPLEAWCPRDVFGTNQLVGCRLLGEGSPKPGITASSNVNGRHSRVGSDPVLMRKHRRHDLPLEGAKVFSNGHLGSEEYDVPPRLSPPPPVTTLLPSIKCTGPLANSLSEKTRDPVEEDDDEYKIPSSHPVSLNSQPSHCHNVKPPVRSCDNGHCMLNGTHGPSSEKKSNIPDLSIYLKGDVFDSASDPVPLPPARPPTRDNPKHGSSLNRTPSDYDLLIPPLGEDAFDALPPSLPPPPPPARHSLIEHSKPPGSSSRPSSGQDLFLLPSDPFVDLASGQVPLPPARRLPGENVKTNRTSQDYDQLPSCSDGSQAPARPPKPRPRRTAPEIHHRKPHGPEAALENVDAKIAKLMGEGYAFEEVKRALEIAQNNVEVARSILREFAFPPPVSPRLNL

Cn1cnnc1-c1cc(F)ccc1-c1cc(C2CC2)nc(-n2cc(C#N)c3cc(C(O)c4cccnc4)[nH]c3c2=O)c1 (stereo not drawn) [Example 92, 6-{6-Cyclopropyl-4-[4-fluoro-2-(4-methyl-4H-1,2,4-triazol-3-yl)phenyl]-2-pyridyl}-2-[hydroxy(3-pyridyl)methyl]-7-oxo-1,6-dihydro-1,6-diaza-4-indenecarbonitrile] gave an EC50 (Jurkat cells) of less than 0.1 µM and an IC50 (Cbl-b) of less than 0.1 µM.
For Cc1cccc(C(O)c2cc3c(C#N)cn(-c4cc(-c5ccc(F)cc5-c5nncn5C)cc(C5CC5)n4)c(=O)c3[nH]2)n1 (stereo not drawn) [Example 93, 6-{6-cyclopropyl-4-[4-fluoro-2-(4-methyl-4H-1,2,4-triazol-3-yl)phenyl]-2-pyridyl}-2-[hydroxy(6-methyl-2-pyridyl)methyl]-7-oxo-1,6-dihydro-1,6-diaza-4-indenecarbonitrile], the EC50 (Jurkat cells) was less than 0.1 µM and the IC50 (Cbl-b) was less than 0.1 µM.
Molecule Cn1cnnc1-c1cc(F)ccc1-c1cc(C2CC2)nc(-n2cc(C#N)c3cc(C(N)c4cccnc4)[nH]c3c2=O)c1 (stereo not drawn) [Example 94, 2-[Amino(3-pyridyl)methyl]-6-{6-cyclopropyl-4-[4-fluoro-2-(4-methyl-4H-1,2,4-triazol-3-yl)phenyl]-2-pyridyl}-7-oxo-1,6-dihydro-1,6-diaza-4-indenecarbonitrile] has an EC50 (Jurkat cells) of 0.1 to 1 µM and an IC50 (Cbl-b) of less than 0.1 µM.
In the case of Cc1cccc(C(N)c2cc3c(C#N)cn(-c4cc(-c5ccc(F)cc5-c5nncn5C)cc(C5CC5)n4)c(=O)c3[nH]2)n1 (stereo not drawn) [Example 95, 2-[amino(6-methyl-2-pyridyl)methyl]-6-{6-cyclopropyl-4-[4-fluoro-2-(4-methyl-4H-1,2,4-triazol-3-yl)phenyl]-2-pyridyl}-7-oxo-1,6-dihydro-1,6-diaza-4-indenecarbonitrile], the EC50 (Jurkat cells) is reported as 0.1 to 1 µM and the IC50 (Cbl-b) is reported as less than 0.1 µM.
Cn1cnnc1-c1cc(F)ccc1-c1cc(C2CC2)nc(-n2cc(C#N)c3cc(CC4(O)CCCCC4)[nH]c3c2=O)c1 [Example 96, 6-{6-cyclopropyl-4-[4-fluoro-2-(4-methyl-4H-1,2,4-triazol-3-yl)phenyl]-2-pyridyl}-2-[(1-hydroxycyclohexyl)methyl]-7-oxo-1,6-dihydro-1,6-diaza-4-indenecarbonitrile] gave an EC50 (Jurkat cells) of less than 0.1 µM and an IC50 (Cbl-b) of less than 0.1 µM.
With Cn1cnnc1-c1cc(F)ccc1-c1cc(C2CC2)nc(-n2cc(C#N)c3cc([C@@H](N)C(F)(F)F)[nH]c3c2=O)c1 [Example 97, 2-[(R)-1-amino-2,2,2-trifluoroethyl]-6-{6-cyclopropyl-4-[4-fluoro-2-(4-methyl-4H-1,2,4-triazol-3-yl)phenyl]-2-pyridyl}-7-oxo-1,6-dihydro-1,6-diaza-4-indenecarbonitrile] the EC50 (Jurkat cells) was 0.1 to 1 µM and the IC50 (Cbl-b) was less than 0.1 µM.
Molecule Cn1cnnc1-c1cc(F)ccc1-c1cc(C2CC2)nc(-n2cc(C#N)c3cc([C@H](N)C(F)(F)F)[nH]c3c2=O)c1 [Example 98, 2-[(S)-1-amino-2,2,2-trifluoroethyl]-6-{6-cyclopropyl-4-[4-fluoro-2-(4-methyl-4H-1,2,4-triazol-3-yl)phenyl]-2-pyridyl}-7-oxo-1,6-dihydro-1,6-diaza-4-indenecarbonitrile] has an EC50 (Jurkat cells) of less than 0.1 µM and an IC50 (Cbl-b) of less than 0.1 µM.
C[C@H]1CCCN(Cc2cc3c(S(C)(=O)=O)cn(-c4cc(-c5ccc(C#N)cc5-c5nccn5C)cc(C5CC5)n4)c(=O)c3[nH]2)C1 [Example 99, 4-[2-(2-{[(S)-3-methyl-1-piperidyl]methyl}-4-mesyl-7-oxo-1,6-dihydro-1,6-diaza-6-indenyl)-6-cyclopropyl-4-pyridyl]-3-(1-methyl-2-imidazolyl)benzonitrile] showed an EC50 (Jurkat cells) of less than 0.1 µM and an IC50 (Cbl-b) of less than 0.1 µM.
CC1(NCc2cc3c(C4CC4)cn(-c4cc(-c5ccc(F)cc5-n5nccc5C(F)(F)F)cc(C5CC5)n4)c(=O)c3[nH]2)CCC1 [Example 103, 4-cyclopropyl-6-[6-cyclopropyl-4-[4-fluoro-2-[5-(trifluoromethyl)pyrazol-1-yl]phenyl]pyridin-2-yl]-2-[[(1-methylcyclobutyl)amino]methyl]-1H-pyrrolo[2,3-c]pyridin-7-one] showed an EC50 (Jurkat cells) of 0.1 to 1 µM and an IC50 (Cbl-b) of less than 0.1 µM.
